According to PubChem BioAssay AID1919014 (Molecular Pharmacology Branch, DTP, NCI, 2023):

Tested on: NCI-H1341 complex spheroids, percent test/control
Experiment: Anticancer human tumor NCI-H1341 cell line growth inhibition [AhR];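 also: spheroids exposed to agents for seven days before readout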
Details: for IC50: curve of first compound; for viability, T/C: stronger effect = lower value; active = viability on the fitted dose curve at most 10% of control; inactive = the rest
Procedure, shortened: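 Complex tumor spheroids co-cultured with HUVEC and human MSC stroma; AhR antagonists tested in combination with standard-of-care and investigational agents. Top concentration at or near clinical Cmax (else 10 microM), half-log dilutions; growth expressed as percent test/control.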

[1] = second compound 0.1 µM, first compound 0.0316 µM
[2] = second compound 0.1 µM, first compound 0.1 µM
[3] = second compound 0.1 µM, first compound 0.316 µM
[4] = second compound 0.1 µM, first compound 1 µM
[5] = second compound 0.316 µM, first compound 0.0316 µM
[6] = second compound 0.316 µM, first compound 0.1 µM
[7] = second compound 0.316 µM, first compound 0.316 µM
[8] = second compound 0.316 µM, first compound 1 µM
[9] = second compound 1 µM, first compound 0.0316 µM
[10] = second compound 1 µM, first compound 0.1 µM
[11] = second compound 1 µM, first compound 0.316 µM
[12] = second compound 1 µM, first compound 1 µM
[13] = second compound 3.16 µM, first compound 0.0316 µM
[14] = second compound 3.16 µM, first compound 0.1 µM
[15] = second compound 3.16 µM, first compound 0.316 µM
[16] = second compound 3.16 µM, first compound 1 µM
[17] = second compound 10 µM, first compound 0.0316 µM
[18] = second compound 10 µM, first compound 0.1 µM
[19] = second compound 10 µM, first compound 0.316 µM
[20] = second compound 10 µM, first compound 1 µM
[21] = second compound 0.1 µM, first compound 3.16 µM
[22] = second compound 0.1 µM, first compound 10 µM
[23] = second compound 0.316 µM, first compound 3.16 µM
[24] = second compound 0.316 µM, first compound 10 µM
[25] = second compound 1 µM, first compound 3.16 µM
[26] = second compound 1 µM, first compound 10 µM
[27] = second compound 3.16 µM, first compound 3.16 µM
[28] = second compound 3.16 µM, first compound 10 µM
[29] = second compound 10 µM, first compound 3.16 µM
[30] = second compound 10 µM, first compound 10 µM
[31] = second compound 0.1 µM, first compound 0.00949 µM
[32] = second compound 0.1 µM, first compound 0.03 µM
[33] = second compound 0.1 µM, first compound 0.0949 µM
[34] = second compound 0.1 µM, first compound 0.3 µM
[35] = second compound 0.316 µM, first compound 0.00949 µM
[36] = second compound 0.316 µM, first compound 0.03 µM
[37] = second compound 0.316 µM, first compound 0.0949 µM
[38] = second compound 0.316 µM, first compound 0.3 µM
[39] = second compound 1 µM, first compound 0.00949 µM
[40] = second compound 1 µM, first compound 0.03 µM
[41] = second compound 1 µM, first compound 0.0949 µM
[42] = second compound 1 µM, first compound 0.3 µM
[43] = second compound 3.16 µM, first compound 0.00949 µM
[44] = second compound 3.16 µM, first compound 0.03 µM
[45] = second compound 3.16 µM, first compound 0.0949 µM
[46] = second compound 3.16 µM, first compound 0.3 µM
[47] = second compound 10 µM, first compound 0.00949 µM
[48] = second compound 10 µM, first compound 0.03 µM
[49] = second compound 10 µM, first compound 0.0949 µM
[50] = second compound 10 µM, first compound 0.3 µM

CC1COCCN1c1cc(-c2ccnn2C)c2ccnc(-c3ccn[nH]3)c2n1 (stereo not given) + Cc1cncc(-c2nc(NCCc3c[nH]c4ccccc34)c3ncn(C(C)C)c3n2)c1
31.5 nM: IC50 (second compound 0.316 µM)
31 nM: IC50 (second compound 3.16 µM)
35.4 nM: IC50 (second compound 1 µM)
inactive: viability, T/C (second compound 0.1 µM, first compound 0.00316 µM) 95.1% | viability, T/C (second compound 0.1 µM, first compound 0.01 µM) 97% | viability, T/C [1] 57.8% | viability, T/C [2] 25.1% | viability, T/C [3] 25.7% | viability, T/C [4] 17.8% | viability, T/C (second compound 0.316 µM, first compound 0.00316 µM) 79.9% | viability, T/C (second compound 0.316 µM, first compound 0.01 µM) 94.4% | viability, T/C [5] 49.8% | viability, T/C [6] 26.8% | viability, T/C [7] 19.8% | viability, T/C [8] 18.7% | viability, T/C (second compound 1 µM, first compound 0.00316 µM) 77.5% | viability, T/C (second compound 1 µM, first compound 0.01 µM) 79.4% | viability, T/C [9] 51.6% | viability, T/C [10] 26.8% | viability, T/C [11] 23.9% | viability, T/C [12] 16.7% | viability, T/C (second compound 3.16 µM, first compound 0.00316 µM) 76% | viability, T/C (second compound 3.16 µM, first compound 0.01 µM) 66.2% | viability, T/C [13] 50% | viability, T/C [14] 32.1% | viability, T/C [15] 24.8% | viability, T/C [16] 16.9% | viability, T/C (second compound 10 µM, first compound 0.00316 µM) 21% | viability, T/C (second compound 10 µM, first compound 0.01 µM) 19% | viability, T/C [17] 16.5% | viability, T/C [18] 15.2% | viability, T/C [19] 12.2% | viability, T/C [20] 10.1%
41.3 nM: IC50 (second compound 0.1 µM)
< 3.16 nM: IC50 (second compound 10 µM)

CC1COCCN1c1cc(C2(S(C)(=N)=O)CC2)nc(-c2ccnc3[nH]ccc23)n1 (stereo not given) + Cc1cncc(-c2nc(NCCc3c[nH]c4ccccc34)c3ncn(C(C)C)c3n2)c1
1820 nM: IC50 (second compound 3.16 µM)
1970 nM: IC50 (second compound 0.316 µM)
< 31.6 nM: IC50 (second compound 10 µM)
inactive: viability, T/C [1] 81.4% | viability, T/C [2] 85.2% | viability, T/C [3] 71.1% | viability, T/C [4] 71.5% | viability, T/C [21] 54.6% | viability, T/C [22] 21.9% | viability, T/C [5] 87.9% | viability, T/C [6] 84.1% | viability, T/C [7] 75.1% | viability, T/C [8] 62.1% | viability, T/C [23] 41.6% | viability, T/C [24] 20.6% | viability, T/C [9] 89.9% | viability, T/C [10] 83.6% | viability, T/C [11] 70.3% | viability, T/C [12] 75.1% | viability, T/C [25] 51.7% | viability, T/C [26] 22.8% | viability, T/C [13] 54.7% | viability, T/C [14] 66.3% | viability, T/C [15] 65.6% | viability, T/C [16] 62.9% | viability, T/C [27] 38.5% | viability, T/C [28] 25.6% | viability, T/C [17] 40.5% | viability, T/C [18] 30.7% | viability, T/C [19] 39.2% | viability, T/C [20] 29.1% | viability, T/C [29] 26.3% | viability, T/C [30] 13.9%
3450 nM: IC50 (second compound 1 µM)
3650 nM: IC50 (second compound 0.1 µM)

COc1ccc([C@@H](O)c2cc(-c3ncnc4cc(N5CCOCC5)ccc34)c(F)cc2Cl)nn1 + Cc1cncc(-c2nc(NCCc3c[nH]c4ccccc34)c3ncn(C(C)C)c3n2)c1
active: viability, T/C [22] 5.31% | viability, T/C [24] 5.39% | viability, T/C [26] 5.3% | viability, T/C [28] 4.69% | viability, T/C [20] 7.45% | viability, T/C [29] 5.7% | viability, T/C [30] 3.93%
< 31.6 nM: IC50 (second compound 10 µM)
inactive: viability, T/C [1] 83.7% | viability, T/C [2] 75.9% | viability, T/C [3] 75.9% | viability, T/C [4] 49.9% | viability, T/C [21] 24.6% | viability, T/C [5] 76.3% | viability, T/C [6] 69.3% | viability, T/C [7] 59.9% | viability, T/C [8] 42.6% | viability, T/C [23] 20.3% | viability, T/C [9] 68% | viability, T/C [10] 62.3% | viability, T/C [11] 61.8% | viability, T/C [12] 44.6% | viability, T/C [25] 17.4% | viability, T/C [13] 71.8% | viability, T/C [14] 67.6% | viability, T/C [15] 46% | viability, T/C [16] 42.1% | viability, T/C [27] 16.2% | viability, T/C [17] 18.4% | viability, T/C [18] 16.3% | viability, T/C [19] 13.7%
687 nM: IC50 (second compound 1 µM)
592 nM: IC50 (second compound 0.316 µM)
1080 nM: IC50 (second compound 0.1 µM)
365 nM: IC50 (second compound 3.16 µM)

Nc1ncn(C2CC(O)C(CO)S2)c(=O)n1 (stereo not given) + Cc1cncc(-c2nc(NCCc3c[nH]c4ccccc34)c3ncn(C(C)C)c3n2)c1
< 0.949 nM: IC50 (second compound 10 µM)
> 300 nM: IC50 (second compound 0.1 µM) | IC50 (second compound 1 µM) | IC50 (second compound 3.16 µM)
282 nM: IC50 (second compound 0.316 µM)
inactive: viability, T/C (second compound 0.1 µM, first compound 0.000949 µM) 102% | viability, T/C (second compound 0.1 µM, first compound 0.003 µM) 82.9% | viability, T/C [31] 91.5% | viability, T/C [32] 88.3% | viability, T/C [33] 67.7% | viability, T/C [34] 50.2% | viability, T/C (second compound 0.316 µM, first compound 0.000949 µM) 84.9% | viability, T/C (second compound 0.316 µM, first compound 0.003 µM) 89.5% | viability, T/C [35] 79.6% | viability, T/C [36] 73.8% | viability, T/C [37] 71.8% | viability, T/C [38] 47.8% | viability, T/C (second compound 1 µM, first compound 0.000949 µM) 69.8% | viability, T/C (second compound 1 µM, first compound 0.003 µM) 87.3% | viability, T/C [39] 80.7% | viability, T/C [40] 77.2% | viability, T/C [41] 67.5% | viability, T/C [42] 58% | viability, T/C (second compound 3.16 µM, first compound 0.000949 µM) 93.7% | viability, T/C (second compound 3.16 µM, first compound 0.003 µM) 97.9% | viability, T/C [43] 86.9% | viability, T/C [44] 84.7% | viability, T/C [45] 82.3% | viability, T/C [46] 63.8% | viability, T/C (second compound 10 µM, first compound 0.000949 µM) 45% | viability, T/C (second compound 10 µM, first compound 0.003 µM) 44.2% | viability, T/C [47] 42.1% | viability, T/C [48] 35.8% | viability, T/C [49] 33.1% | viability, T/C [50] 26%

O=C(C=Cn1cnc(-c2cc(C(F)(F)F)cc(C(F)(F)F)c2)n1)NNc1cnccn1 + Cc1cncc(-c2nc(NCCc3c[nH]c4ccccc34)c3ncn(C(C)C)c3n2)c1
81.1 nM: IC50 (second compound 1 µM)
56.8 nM: IC50 (second compound 0.316 µM)
active: viability, T/C (second compound 0.1 µM, first compound 0.949 µM) 7.39% | viability, T/C (second compound 0.1 µM, first compound 3 µM) 6.28% | viability, T/C (second compound 0.316 µM, first compound 0.949 µM) 7.92% | viability, T/C (second compound 0.316 µM, first compound 3 µM) 4.63% | viability, T/C (second compound 1 µM, first compound 0.949 µM) 7.39% | viability, T/C (second compound 1 µM, first compound 3 µM) 4.92% | viability, T/C (second compound 3.16 µM, first compound 0.949 µM) 7.86% | viability, T/C (second compound 3.16 µM, first compound 3 µM) 4.46% | viability, T/C (second compound 10 µM, first compound 0.949 µM) 5.77% | viability, T/C (second compound 10 µM, first compound 3 µM) 3.55%
inactive: viability, T/C [31] 80.6% | viability, T/C [32] 77% | viability, T/C [33] 51.1% | viability, T/C [34] 14.5% | viability, T/C [35] 66.5% | viability, T/C [36] 65.7% | viability, T/C [37] 38% | viability, T/C [38] 13.4% | viability, T/C [39] 76.8% | viability, T/C [40] 78.5% | viability, T/C [41] 45.1% | viability, T/C [42] 12.7% | viability, T/C [43] 70.2% | viability, T/C [44] 60.4% | viability, T/C [45] 30.8% | viability, T/C [46] 13.6% | viability, T/C [47] 35.3% | viability, T/C [48] 34.8% | viability, T/C [49] 17.4% | viability, T/C [50] 9.23%
98.1 nM: IC50 (second compound 0.1 µM)
< 9.49 nM: IC50 (second compound 10 µM)
44.4 nM: IC50 (second compound 3.16 µM)
